This test addresses G-protein coupled receptor 151 (Homo sapiens) (UniProt Q8TDV0). The test is described as follows: GPR151 activator potency, dose response, cell-based (AID 1508610). As to conditions: cell-based GPR151 activation reporter.

Activity calls are given as the source filed them. The rule behind the calls is not given here. A value given as a limit tells only on which side of the number the result lay.

As a reminder, the EC50 is the concentration giving half of the maximal effect.

Chain of G-protein coupled receptor 151 (Homo sapiens) (Q8TDV0 whole entry, looked up): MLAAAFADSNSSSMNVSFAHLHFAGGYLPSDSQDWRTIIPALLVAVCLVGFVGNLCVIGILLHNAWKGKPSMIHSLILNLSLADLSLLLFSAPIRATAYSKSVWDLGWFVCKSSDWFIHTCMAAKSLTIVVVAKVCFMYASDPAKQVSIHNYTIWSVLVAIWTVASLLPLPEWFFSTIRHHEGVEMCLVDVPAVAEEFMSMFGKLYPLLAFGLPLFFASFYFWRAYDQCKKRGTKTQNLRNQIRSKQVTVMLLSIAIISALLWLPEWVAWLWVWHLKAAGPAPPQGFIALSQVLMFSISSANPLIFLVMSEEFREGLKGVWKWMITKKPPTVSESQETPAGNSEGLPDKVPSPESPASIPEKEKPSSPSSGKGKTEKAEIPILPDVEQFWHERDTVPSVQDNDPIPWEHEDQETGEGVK

For `Cc1nccc2[nH]c(=O)c(C(=O)NC3CCN(Cc4ccccc4)CC3)cc12`, the EC50 is > 28 µM (inactive). The value for `Cn1cc(CCC(=O)NC2CCN(Cc3ccccc3)CC2)c2ccccc21` was > 28 µM (inactive). In the case of `CC(C)CC(NC(=O)C(C)NC(=O)CNC(=O)C(NC=O)C(C)C)C(=O)NC(C)C(=O)NC(C(=O)NC(C(=O)NC(C(=O)NC(Cc1c[nH]c2ccccc12)C(=O)NC(CC(C)C)C(=O)NC(Cc1c[nH]c2ccccc12)C(=O)NC(CC(C)C)C(=O)NC(Cc1c[nH]c2ccccc12)C(=O)NC(CC(C)C)C(=O)NC(Cc1c[nH]c2ccccc12)C(=O)NCCO)C(C)C)C(C)C)C(C)C` (centres undefined), the EC50 was 0.97 µM.

Take `CCOc1ccc(-c2csc(/C(C#N)=C/c3ccccc3OCC)n2)cc1`: the EC50 is > 25.5 µM (inactive). The value for `COc1ccccc1-c1nnc(NC(=O)c2ccc([N+](=O)[O-])s2)o1` was > 9.17 µM (inactive); that for `N=c1sc2c(n1CC(=O)c1ccccc1)CCCC2` was > 27 µM (inactive). In the case of `O=C(NC1CC1)c1ccc2nc(-c3csc4ccccc34)sc2c1`, the EC50 is > 28.1 µM (inactive). In the case of `COc1ccc(-c2csc(/C(C#N)=C/Nc3ccc(F)c([N+](=O)[O-])c3)n2)cc1OC`, the EC50 was > 27.6 µM (inactive).

For the molecule `CCC(C)OC(=O)C1=C(C)NC2=C(C(=O)CC(c3ccc(OC)cc3)C2)C1c1cc(OC)c(OC)cc1Br` (centres undefined), the EC50 is > 22.4 µM (inactive). As for `CC1=NCCc2c1[nH]c1cc(O)ccc21`, the EC50 was > 28 µM (inactive). On to `Cc1ccccc1N(CC(=O)N1CCOCC1)S(=O)(=O)c1ccc(Cl)cc1`, for which the EC50 is > 28 µM (inactive). The value for `CCOC(=O)c1sc(NC(=O)C2CC2)nc1C` was > 28.6 µM (inactive); that for `O=C(O)C1CCCN(c2ncnc3scc(-c4ccccc4)c23)C1` (centres undefined) was > 29.7 µM (inactive); that for `NC(=O)c1ccsc1NC(=O)/C=C/c1ccccc1` was > 26.7 µM (inactive). Turning to `CCCNC(=O)c1ccc2nc(-c3csc4ccccc34)sc2c1`, the EC50 was > 25.7 µM (inactive). Take `COc1cccc(/C=C(\C#N)c2nc3ccc(C)cc3[nH]2)c1OC`: the EC50 was > 33.2 µM (inactive). Regarding `CCn1ccnc1CN1CCN(Cc2ccc(F)cc2)C(CCO)C1` (centres undefined), the EC50 was > 28 µM (inactive). Regarding `O=C(NC1(C(F)(F)F)NC(=O)N(c2ccc(F)cc2)C1=O)c1ccncc1` (centres undefined), the EC50 is > 28 µM (inactive).

With `Fc1ccc(-c2cnc(N3CCC4(CC3)OCCO4)nc2)cc1`, the EC50 was > 28 µM (inactive). Consider `Cc1cc(N2CCCCC2)nc2ccc(NC(=O)c3cccc([N+](=O)[O-])c3)cc12`, for which the EC50 was > 29.2 µM (inactive).

On to `COc1cccc(-c2ccc(SCC(=O)Nc3cccc(NC(C)=O)c3)nn2)c1`, for which the EC50 is > 27.4 µM (inactive).

Take `N#CC1=C(N)Oc2n[nH]c(C34CC5CC(CC(C5)C3)C4)c2C1c1cccnc1` (centres undefined): the EC50 was > 27 µM (inactive). Turning to `CCOC(=O)c1cnc2c(OC)cccc2c1NC1CCCCCC1`, the EC50 entry was “inactive”.

For `Cc1nc2c(C(=O)NCc3ccccn3)cnn2c(C)c1Cc1cccc(Cl)c1`, the EC50 was > 29.5 µM (inactive). Take `O=C(CSc1nc(NC2CCCCC2)c2ccccc2n1)c1ccc(F)cc1`: the EC50 is > 28.1 µM (inactive). Regarding `CC(C)C[C@@H]1NC(=O)[C@@H]2C[C@H](NC(=O)Nc3cccc(C(F)(F)F)c3)CN2C1=O`, the EC50 is > 28 µM (inactive). For `CCCOc1ccc(NC(=O)C2CC(=O)N(CC)C(=Nc3ccc(C)c(C)c3)S2)cc1` (centres undefined), the EC50 was > 26.4 µM (inactive). For `COC(=O)c1cc2c(N3CCC(Cc4ccccc4)CC3)ncnc2s1`, the EC50 is > 27.4 µM (inactive).

Regarding `Cc1ccc(/C(=N/NC(=O)Cc2ccccc2)C23CN4CN(CN(C4)C2)C3)cc1`, the EC50 was > 28 µM (inactive). Take `COc1ccc(-n2nc3c(c2NC(=O)CCC2CCCC2)CS(=O)(=O)C3)cc1`: the EC50 is > 28.2 µM (inactive).

As for `CCC(C)NC(=O)c1cc(=O)[nH]c2ccc(Br)cc12` (centres undefined), the EC50 was 0.867 µM. Consider `O=C(Nc1ccc(Oc2cccc(Oc3ccc(NC(=O)c4ccccc4F)cc3)c2)cc1)c1ccccc1F`, for which the EC50 is > 14.8 µM (inactive).

As for `COc1ccccc1C(=O)Nc1nc2ccccc2s1`, the EC50 was > 26.2 µM (inactive).

Consider `O=C(O)c1ccc(OCc2ccnc(Cl)c2)cc1`, for which the EC50 is > 28 µM (inactive). In the case of `CCOC(=O)N1CCc2nc(NC(=O)c3ccnn3CC)sc2C1`, the EC50 was > 28 µM (inactive). For the molecule `CSc1nccc(-c2cc(Cl)c3c(c2)CC(CNC(=O)c2ccoc2)O3)n1` (centres undefined), the EC50 was > 28 µM (inactive). As for `COc1cc(N)c(Cl)cc1C(=O)OCCOc1ccc(Br)cc1`, the EC50 was > 30.8 µM (inactive). With `Cn1nc(C(=O)NCc2ccc(F)cc2)c2c1-c1ccccc1OC2`, the EC50 is > 28 µM (inactive). For the molecule `Cc1cc2nc3c(=O)n(C4CCCCCC4)c(=O)[nH]c3nc2cc1N`, the EC50 was > 28 µM (inactive).

Turning to `COc1ccc(C(=O)N/N=C/c2ccc(O)cc2O)cc1OC`, the EC50 is > 28 µM (inactive). For the molecule `CCOc1ccc(S(=O)(=O)N(CC(=O)NCCSc2ccccc2)c2ccccc2)cc1`, the EC50 is > 26.6 µM (inactive). Turning to `COc1cc(Br)ccc1OCC(=O)N/N=C/c1ccc([N+](=O)[O-])cc1`, the EC50 is > 28 µM (inactive).

As to `O=C(O)CCCN=C1CCc2ccccc2N1`, the EC50 is > 43.2 µM (inactive).

Regarding `CCSCCOC(=O)C1=C(C)NC(=O)NC1c1ccc(OC(F)(F)F)cc1` (centres undefined), the EC50 is > 22.5 µM (inactive). For `Cc1c(C(=O)Nc2cc(Sc3ccc(F)cc3)cc([N+](=O)[O-])c2)sc2ncn(Cc3ccccc3F)c(=O)c12`, the EC50 is > 20.2 µM (inactive). For `O=[N+]([O-])c1ccc(/C=C/c2ccc(O)cc2)cc1` the value was > 28.9 µM (inactive). The value for `COc1ncc(-c2cncc(-c3cccc(O)c3)n2)c(OC)n1` was > 28 µM (inactive); that for `Fc1ccc(CSc2ncn[nH]2)cc1` was > 50.7 µM (inactive). For `COc1cccc(-c2ccc(SCC(=O)Nc3ccc4c(c3)OCCO4)nn2)c1`, the EC50 is > 28.7 µM (inactive). Regarding `C/C(=C\c1ccccc1)C(=O)NCCc1ccccc1`, the EC50 is > 28 µM (inactive). For `N#Cc1nc2[nH]c(-c3ccccc3)cc(=O)n2c1C#N` the value was > 30 µM (inactive); for `O=C(CCCC(=O)N/N=C/c1cccc([N+](=O)[O-])c1)N/N=C/c1cccc([N+](=O)[O-])c1`, > 28 µM (inactive); for `CSc1ccc(/C=N/NC(=O)C[n+]2ccccc2)cc1`, > 28 µM (inactive).

With `CCOC(=O)c1c(C)c(C(=O)NCCC(C)C)c(C)n1C`, the EC50 is > 28 µM (inactive). Consider `COc1cc(C2Nc3ccccc3NC3=C2C(=O)CC(c2ccc4c(c2)OCO4)C3)ccc1OC(C)=O` (centres undefined), for which the EC50 is > 23.3 µM (inactive).

On to `Cn1c(=O)c2c(nc(NCCO)n2Cc2ccccc2F)n(C)c1=O`, for which the EC50 was > 34.4 µM (inactive).

In the case of `CCOCCCNC(=O)CSc1ncccc1-c1nc2cc(C)c(C)cc2[nH]1`, the EC50 is > 28 µM (inactive).

As to `O=C(/C=C/c1ccc(O)cc1)c1ccc(O)cc1O`, the EC50 was > 28 µM (inactive). For the molecule `CC[n+]1cc(C)ccc1/C=C/c1ccc(N(C)C)cc1`, the EC50 is > 29.7 µM (inactive).

Source of the values: PubChem BioAssay AID1508610 (The Scripps Research Institute Molecular Screening Center, 2020).
